Measured values from patent US10329542B2, “HBV RNAse H purification and enzyme inhibitors” (Saint Louis University, priority 2012, dated 2019).

Experiments:
[1] = target: T1, HBV genotype D RNAseH (HRHPL) (Hepatitis B virus genotype D subtype ayw, UniProt P03156, INS679M); assay: Oligonucleotide-directed RNAseH cleavage assay, HBV genotype D; format: biochemical; conditions: for Activity vs. HBV Biochemical vs. gtD: class by concentration giving inhibition (10, 20, 60 μM)
T1 construct: HRHPL contains HBV genotype D (Genbank V01460) polymerase residues 684-845; made in house; host or cells: E. coli BL21 codon+
Experimental: (§1) For the oligonucleotide-directed RNAseH cleavage assay (Gong et al., 2001), 6 μl protein extract (typical protein concentration 2.8 mg/ml) was mixed with 0.5 μg internally ^32P-labeled DRF+ RNA (nucleotides 2401-2605 of the duck HBV genome plus 60 nucleotides of flanking sequences from pBluescript) and 3 μg oligonucleotide D2507- or its corresponding negative control D2526+ on ice in 20 μl under the conditions in Table 1. Some reactions in FIG. 5 employed oligonucleotide D2543M-Sal or its D2453+ negative control as indicated. The reactions were incubated at 42° C. for 90 min. and terminated by addition of Laemmli protein loading buffer and boiling. The samples were resolved by 12% SDS-PAGE, the gels were stained with Coomassie blue to monitor protein loading, and labeled RNA was detected by autoradiography. Candidate inhibitors were dissolved in DMSO and added at the indicated concentrations during assembly of the reactions. Control reactions lacking the compounds contained DMSO as a vehicle control. The RNAseH autoradiograms were scanned and quantified with ImageJ.
(§2) Oligonucleotide-directed RNAseH cleavage assays (Gong et al., 2001) were performed as described (Tavis et al., 2013). Briefly, HBV RNAseH extracts were mixed with a 264 nt-long internally ^32P-labeled RNA plus an excess of a complementary DNA oligonucleotide or its inverse-complement as a negative control in a final concentration of 65 mM Tris pH 8.0, 190 mM NaCl, 5 mM MgCl2, 5 mM dTT, 0.05% NP40, and 6% glycerol. βTJ was dissolved in DMSO and added at the indicated concentrations; the final concentration of DMSO in all reactions was 1%. The reactions were incubated at 42° C. for 90 min. and terminated by addition of Laemmli protein electrophoresis buffer. The samples were resolved by SDS-PAGE, labeled RNA was detected by autoradiography, the autoradiograms were scanned, and the RNA cleavage products were quantified with ImageJ (National Institutes of Health). IC50 values were calculated by non-linear regression using GraphPad Prism (GraphPad Software, Inc.).

human RNAseH1 = target: T2, human RNAseH1 (Homo sapiens, UniProt O60930); assay: Oligonucleotide-directed RNAseH assay, recombinant human RNAseH1; format: biochemical; conditions: class by concentration giving inhibition (10, 20, 60 μM)
T2 construct: hexahistidine (N); made in house; host or cells: E. coli BL21 codon+
T2 sequence (O60930 1-286): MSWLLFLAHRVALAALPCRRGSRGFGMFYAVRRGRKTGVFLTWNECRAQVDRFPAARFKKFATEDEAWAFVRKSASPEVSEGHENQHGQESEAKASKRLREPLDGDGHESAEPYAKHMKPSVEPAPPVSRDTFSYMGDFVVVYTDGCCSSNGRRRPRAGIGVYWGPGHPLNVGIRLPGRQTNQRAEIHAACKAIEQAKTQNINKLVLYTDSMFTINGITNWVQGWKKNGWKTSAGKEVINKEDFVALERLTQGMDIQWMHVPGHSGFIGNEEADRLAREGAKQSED
Experimental: as §1, with “ImageJ. The oligonucleotides were: D2526+([…]; SEQ ID NO:8), D2507-([…]; SEQ ID NO:9), D2453+([…]; SEQ ID NO:10), and D2543M-Sal ([…]; SEQ ID NO:11).” for “ImageJ.”
Therefore, the inventors cloned the human RNAseH1 with an N-terminal hexahistidine tag, expressed it in E. coli, and purified the protein by nickel affinity chromatography. […] This enzyme was active in the oligonucleotide-directed and fluorescent RNAseH assays (FIG. 10B and data not shown). To determine how inhibition of human RNAseH1 compared to inhibition of the HBV RNAseH, the inventor titrated the RNAaseH1 enzyme to yield similar levels of activity as the HBV enzyme, and then the inventor directly compared the ability of compounds #8-12 to inhibit human RNAseH1 and HRHPL at 10 μM. […] Therefore, it is possible to inhibit the HBV RNAseH without inhibiting human RNAseH1.
as §2

HBV = HBV genomic replication assays (Table 2); format: cell-based, Hepatitis B virus; conditions: class by active concentration
Experimental: Huh7 cells were maintained in Dulbecco's modified Eagle's medium with 10% fetal bovine serum at 37° C. in 5% CO2. Cells were seeded into 60 mm dishes and transfected at 70% confluency with 2.6 μg of plasmids using TransIT-LT1 (Mirus, Inc.). Test compounds were added the morning following transfection at 10 or 50 μM, and fresh medium containing the compounds was provided every 1-2 days. Four or five days post-transfection HBV cores were isolated by lysis of the cells in 10 mM Tris pH 7.5, 1 mM EDTA, 0.25% NP40, 50 mM NaCl, and 8% sucrose followed by sedimentation through a 30% sucrose cushion as described (Travis, et al., 1998). Viral DNAs were isolated from cytoplasmic core particle preparations by proteinase K digestion followed by phenol/chloroform extraction as described (Gong et al., 2001). Duplicate aliquots of the nucleic acids were treated with 2 U E. coli DNAse-free RNAseH (Invitrogen) at 37° C. for 30 min. or were mock treated. The nucleic acid samples were resolved by electrophoresis on 1.2% agarose gels and detected by Southern blotting with ^32P-labeled HBV DNA as a probe. […]

T1 sequence (P03156 680-832, added parts left off, stated change not applied): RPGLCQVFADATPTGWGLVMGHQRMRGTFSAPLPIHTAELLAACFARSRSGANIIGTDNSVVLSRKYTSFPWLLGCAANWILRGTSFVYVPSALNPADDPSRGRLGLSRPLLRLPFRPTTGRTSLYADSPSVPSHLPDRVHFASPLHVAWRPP

Row | Structure (SMILES) | Activity vs. HBV Biochemical vs. gtD [1] | Activity vs. human RNAseH1 (human RNAseH1) | other results
1 | N#Cc1c(NC(=O)CSc2nnc(C3CC3)o2)sc2c1CCC2 [Compound 32] | − (− no inhibition at 60 μM) |  | 
2 | O=C(Nc1ccc(O)c(=O)cc1)c1ccccc1 [Compound 52] | − (− no inhibition at 60 μM) | − (− no inhibition at 60 μM) | 
3 | CCn1cc(C(=O)O)c(=O)c2cc3c(cc21)OCO3 [Compound 65] | − (− no inhibition at 60 μM) |  | 
4 | O=C(O)c1cn(C2CC2)c2cc(Cl)c(F)cc2c1=O [Compound 66] | − (− no inhibition at 60 μM) |  | 
5 | CCn1cc(C(=O)O)c(=O)c2ccc(C)nc21 [Compound 70] | − (− no inhibition at 60 μM) |  | 
6 | Cc1cc(C)n(O)c(=O)c1C#N [Compound 44] | − (− no inhibition at 60 μM) | − (− no inhibition at 60 μM) | 
7 | CC(C)S[C@@H]1O[C@H](CO)[C@H](O)[C@H](O)[C@H]1O [IPTG, reference compound] |  |  | RNAseH activity of HRHPL relative to the DMSO vehicle control ([1]; irrelevant compounds at 10 μM, pooled): 52±9%
8 | O=c1ccccc(Br)c1O [Compound 54, 3-bromotropolone] | − (− no inhibition at 60 μM) |  | 
9 | CC(C)=CCc1ccc(O)c(=O)cc1C(C)C [Compound 49, Nootkatin] | ++ (++ inhibition at 20 μM) | − (− no inhibition at 60 μM) | 
10 | Cc1ccc(S(=O)(=O)Oc2cccccc2=O)cc1 [Compound 61] | − (− no inhibition at 60 μM) | ++ (++ inhibition at 20 μM) | 
11 | O=Nc1ccc(O)c(=O)cc1 [Compound 50, 5-nitrosotropolone] | ++ (++ inhibition at 20 μM) | − (− no inhibition at 60 μM) | Activity vs. HBV Genomic Replication (HBV): + (+, activity detectable at >10 μM)
12 | Cn1c(C(C)(C)N)nc(C(=O)NCc2ccc(F)cc2)c(O)c1=O [Compound 77, reference compound] | − (− no inhibition at 60 μM) |  | 
13 | CCOC(=O)c1sc(NC(=O)CSc2nnc[nH]2)c(C#N)c1C [Compound 28] | − (− no inhibition at 60 μM) | + (+ inhibition at 60 μM) | 
14 | O=c1cccccc1Cl [Compound 57, 2-chlorotropone] | − (− no inhibition at 60 μM) |  | 
15 | CCOC(=O)c1sc(NC(=O)CSc2nccc(C)n2)c(C#N)c1C [Compound 27] | − (− no inhibition at 60 μM) |  | 
16 | CC1COc2c(N3CCN(C)CC3)c(F)cc3c(=O)c(C(=O)O)cn1c23 (stereo not drawn) [Compound 68] | − (− no inhibition at 60 μM) |  | 

Row | Structure (SMILES) | Activity vs. HBV Biochemical vs. gtD [1] | Activity vs. human RNAseH1 (human RNAseH1) | other results
17 | O=C(Oc1cccccc1=O)c1ccccc1 [Compound 62] | + (+ inhibition at 60 μM) |  | 
18 | Cc1ccc2oc(=O)c(C#N)c(C)c2c1 [Compound 33] | − (− no inhibition at 60 μM) |  | 
19 | N#Cc1c(NC(=O)CSc2nnc(Cc3ccccc3)o2)sc2c1CCCC2 [Compound 25] | − (− no inhibition at 60 μM) |  | 
20 | CCOC(=O)c1sc(NC(=O)CSc2nnc(-c3ccc(Cl)cc3)o2)c(C#N)c1C [Compound 24] | − (− no inhibition at 60 μM) |  | 
21 | CCOC(=O)c1sc(NC(=O)CSc2ccc(Cl)cc2)c(C#N)c1C [Compound 37] | − (− no inhibition at 60 μM) |  | 
22 | N#Cc1cc2ccccc2oc1=N [Compound 21] | − (− no inhibition at 60 μM) |  | 
23 | Cc1cc(C(F)(F)F)c(C#N)c(=O)[nH]1 [Compound 19] | − (− no inhibition at 60 μM) |  | 
24 | O=C(Oc1cccccc1=O)c1ccc([N+](=O)[O-])cc1 [Compound 51, tropolone p-nitrobenzoate] | + (+ inhibition at 60 μM) |  | 
25 | Cc1cc(C)c(OC(=O)c2ccc(Cl)cc2)c(=O)c(C)c1 [Compound 59] | − (− no inhibition at 60 μM) | + (+ inhibition at 60 μM) | 
26 | CCOC(=O)c1cc2ccccc2n(O)c1=O [Compound 42] | − (− no inhibition at 60 μM) | + (+ inhibition at 60 μM) | 
27 | CC(=O)NC(CCc1ccc(Cl)c(Cl)c1)c1cccc(O)c(=O)c1 (stereo not drawn) [Compound 55] | + (+ inhibition at 60 μM) | + (+ inhibition at 60 μM) | 
28 | O=C(Oc1cccccc1=O)c1ccc(Cl)cc1 [Compound 63] | − (− no inhibition at 60 μM) |  | 
29 | CCOC(=O)c1sc(NC(=O)CSc2nc(C)cc(-c3ccccc3)n2)c(C#N)c1C [Compound 26] | − (− no inhibition at 60 μM) |  | 
30 | CCN1C[C@H](C)n2c(c(O)c3c(=O)n(Cc4ccc(F)c(Cl)c4)nc(C(=O)NC)c32)C1=O [Compound 74, reference compound] | − (− no inhibition at 60 μM) |  | 
31 | Cc1cc(C2CCCCC2)n(O)c(=O)c1 [Compound 41, Ciclopirox, reference compound] | − (− no inhibition at 60 μM) | + (+ inhibition at 60 μM) | 
